# Article PMC10485906, “Development of a Dihydroquinoline–Pyrazoline GluN2C/2D-Selective Negative Allosteric Modulator of the N-Methyl-D-aspartate Receptor” (ACS Chemical Neuroscience, 2023)
# Several values for one entry are separate records, joined by “and”; a condition that tells them apart may be missing. Equal entries are not always repeated. Where two headings read alike, the source gives them in different places.
# How the values were obtained:
# [1] = Mouse plasma and brain pharmacokinetics, IP administration; assay type: in vivo; conditions: for concentration at 0.25 h / concentration at 0.5 h / concentration at 1 h / concentration at 2 h / concentration at 4 h: intraperitoneal; for AUC: read-out: AUC0.25–4 h brain; for AUC(0-t): read-out: AUC0.25–4 h plasma (AUCLAST)
# Experimental: IACUC-approved protocols and animal welfare regulations outlined in the “Guide for the Care and Use of Laboratory Animals” were both followed during the pharmacokinetic evaluation of all compounds. In vivo analysis was performed by Pharmaron (IP administration, Irvine, CA) and Sai Life (IV administration, Hinjewadi Pune, Pune, India).
# A group (n = 15) of fed, male C57BL/6 mice ∼6 to 8 weeks of age was injected IP with 10 mg/kg (1 mg/mL) of drug using 50% PEG400 in water as a vehicle. Samples were collected from the blood and brain at 0.25, 0.5, 1, 2, and 4 h after administration (3 mice per time point) following CO2 anesthesia. Collection from the brain was performed as follows: the mouse is terminally anaesthetized via rising concentration of CO2 and as much blood is removed as possible via cardiac puncture. The cardiac puncture is done by opening the chest cavity to expose the heart, cutting an incision in the right auricle using surgical scissors, and finally injecting a saline solution (∼10 mL) slowly into the left ventricle via a syringe. The mouse is placed head down at a 45° angle to facilitate blood removal. After perfusion, the skull is opened and the brain is removed. The whole brain is washed with saline, dried with surgical gauze, placed in tared tubes, and stored at −75 °C before analysis. For plasma sample preparation at the 0.25–2 h time points, 15 μL of blank solution, 30 μL of plasma sample, and 150 μL were added sequentially for protein precipitation. After centrifugation, 20 μL of the supernatant and 80 μL of collection buffer were combined, and thus, the final compound concentration in plasma (ng/mL) was corrected by multiplying by 5. For plasma sample preparation at the 4 h time point, 15 μL of blank solution, 30 μL of plasma sample, and 150 μL of acetonitrile were added sequentially for protein precipitation. For all brain sample preparation, 15 μL of blank solution, 30 μL of brain samples, and 150 μL of acetonitrile were added sequentially for protein precipitation. Brain samples were prepared by adding brain (g) to deionized water (mL) in a 1:4 ratio for homogenization. The mixtures were then vortexed for 30 s and subsequently centrifuged (∼4000 rpm) for 15 min. The supernatant was diluted 3-fold with water, and a 2 μL aliquot of the diluted supernatant was injected into a Shimadzu LC-30A LC-MS/MS system with a Phenomenex 2.6 μ PFP 100A column (30 mm × 2.1 mm) using verapamil as an internal standard. A gradient from 95% water (0.1% formic acid) to 95% ACN (0.1% formic acid) was run over 2 min at a flow rate of 0.6 mL/min. Brain and blood samples were collected at 15, 30, 60, 120, and 240 min from three C57Bl/6 mice at each time point. See Tables S6–S10 for 2i concentrations.
# hP2x = experiment: Off-target, oocytes, purinergic receptor; assay type: cell-based, human; conditions: 1 µM compound; 9 µM ATP
# Experimental: Analysis of Off-target Actions
# Compound (S)-(-)-2i was tested at 1 µM for actions at glycine-activated GluN1/GluN3A (human GluN1-F484A,T518L/GluN3A referred to a GluN1-FA,TL/GluN3A) and rat GluN1-4a/GluN3B in the presence of 0.5 µM CGP-78608. cRNA injection ratios for GluN1/GluN3 were 1:2. Compound (S)-(-)- 2i was also tested for actions at AMPA (rat GluA1, rat GluA2, human GluA3-L531Y), kainate (rat GluK2), nicotinic acetylcholine (rat α7 and α4β2, cRNA ratio 1:1), GABAA (rat α1β2γ2S, cRNA ratio 1:1:1), GABAC (rat ρ1), glycine (rat α1), and purinergic (human P2X) receptors expressed in Xenopus oocytes. cRNA encoding the receptor subunits was synthesized from linear template cDNA using the mMessage mMachine kit (Ambion). Oocytes were injected with 1-5 ng cRNA in a 50 nL volume and incubated in Barth's solution at 15°C for 2-5 days prior to recording. GluK2-expressing oocyte were incubated in 1 mg/ml (10 µM) concanavalin-A for 10 min prior to recording. The cDNAs encoding GABAC and glycine subunits were provided by Dr. D. Weiss (University of Texas Health Science Center at San Antonio). cDNAs encoding nicotinic acetylcholine receptor subunits were provided by Drs. […]
# GABA. […] Responses in presence of test compound were expressed as a percent of control. […]
# [2] = male, C57BL/6, mouse, brain, 10 mg/kg IP
# [3] = male, C57BL/6, mouse, brain, 10 mg/kg IP, read-out: Tmax brain
# [4] = male, C57BL/6, mouse, plasma, 10 mg/kg IP
# [5] = male, C57BL/6, mouse, plasma, 10 mg/kg IP, read-out: Tmax plasma
# [6] = male, C57BL/6, mouse, plasma, 10 mg/kg IP, read-out: t1/2 plasma (converted)
# [7] = male, mouse, plasma, 10 mg/kg IP, C57BL/6 mice
smiles,measurement,setting,value
O=C(O)CC(F)(F)C(=O)N1N=C(c2c(-c3ccc(Cl)cc3)c3ccccc3[nH]c2=O)CC1c1ccc(Cl)cc1 (stereo not drawn) [2i],AUC % Extrapolation brain,[1]; 10 mg/kg IP,58%
same,AUC % Extrapolation plasma,[1]; 10 mg/kg IP,15%
same,AUCINF brain,[1]; 10 mg/kg IP,151 ng·h/g
same,AUCLAST brain,[1]; 10 mg/kg IP,64 ng·h/g
same,Cmax brain,[1]; 10 mg/kg IP,0.040 µM and 23 ng/g
same,Cmax brain,"[1]; 10 mg/kg IP, C57BL/6 mice",23 ng/mL
same,"Brain/plasma Ratio, individual (Group 1-3)","[1]; 10 mg/kg IP, 0.25 h",0.012 and 0.019
same,"brain calculated concentration, individual (Group 1-3)","[1]; 10 mg/kg IP, 0.25 h",17.9 ng/g and 22.6 ng/g
same,"plasma concentration, individual (Group 1-3)","[1]; 10 mg/kg IP, 0.25 hr",1.5 µg/mL and 1.18 µg/mL
same,"Brain/plasma Ratio, individual (Group 1-3)","[1]; 10 mg/kg IP, 0.5 h",0.008 and 0.023 and 0.011
same,"brain calculated concentration, individual (Group 1-3)","[1]; 10 mg/kg IP, 0.5 h",29.1 ng/g and 18.7 ng/g
same,"plasma concentration, individual (Group 1-3)","[1]; 10 mg/kg IP, 0.5 hr",2.62 µg/mL and 1.26 µg/mL and 1.74 µg/mL
same,"brain calculated concentration, individual (Group 1-3)","[1]; 10 mg/kg IP, 1 h",16.5 ng/g and 14.9 ng/g
same,"plasma concentration, individual (Group 1-3)","[1]; 10 mg/kg IP, 1 hr",1.27 µg/mL and 1.17 µg/mL
same,"Brain/plasma Ratio, individual (Group 1-3)","[1]; 10 mg/kg IP, 2 h",0.016 and 0.022
same,"brain calculated concentration, individual (Group 1-3)","[1]; 10 mg/kg IP, 2 h",18.0 ng/g and 24.3 ng/g
same,"plasma concentration, individual (Group 1-3)","[1]; 10 mg/kg IP, 2 hr",1.14 µg/mL and 1.08 µg/mL
same,"Brain/plasma Ratio, individual (Group 1-3)","[1]; 10 mg/kg IP, 4 h",0.058 and 0.050 and 0.022
same,"brain calculated concentration, individual (Group 1-3)","[1]; 10 mg/kg IP, 4 h",10.4 ng/g and 12.8 ng/g
same,"plasma concentration, individual (Group 1-3)","[1]; 10 mg/kg IP, 4 hr",0.163 µg/mL and 0.208 µg/mL and 0.585 µg/mL
same,brain concentration in brain compartment,[1]; IP administration,0.04 µM
same,"brain concentration, upper limit if restricted to extracellular space",[1]; IP administration,≤ 0.2 µM
same,Kp at 1 h,"[1]; male, C57BL/6, mouse, brain and plasma, ip, 10 mg/kg, 10 mg/kg IP, 1 h, read-out: Brain/plasma Ratio, Mean",0.013
same,Kp at 2 h,"[1]; male, C57BL/6, mouse, brain and plasma, ip, 10 mg/kg, 10 mg/kg IP, 2 h, read-out: Brain/plasma Ratio, Mean",0.018
same,Kp at 2 h,"[1]; male, C57BL/6, mouse, brain and plasma, ip, 10 mg/kg, 10 mg/kg IP, 2 h, read-out: Brain/plasma Ratio, individual (Group 1-3)",0.015
same,Kp at 4 h,"[1]; male, C57BL/6, mouse, brain and plasma, ip, 10 mg/kg, 10 mg/kg IP, 4 h, read-out: Brain/plasma Ratio, Mean",0.043
same,concentration at 0.25 h,"[1]; male, C57BL/6, mouse, brain, 10 mg/kg, 10 mg/kg IP, 0.25 h, read-out: brain calculated concentration, Mean",17.5 ng/g
same,concentration at 0.25 h,"[1]; male, C57BL/6, mouse, brain, 10 mg/kg, 10 mg/kg IP, 0.25 h, read-out: brain calculated concentration, individual (Group 1-3)",12 ng/g
same,concentration at 0.5 h,"[1]; male, C57BL/6, mouse, brain, 10 mg/kg, 10 mg/kg IP, 0.5 h, read-out: brain calculated concentration, Mean",22.8 ng/g
same,concentration at 0.5 h,"[1]; male, C57BL/6, mouse, brain, 10 mg/kg, 10 mg/kg IP, 0.5 h, read-out: brain calculated concentration, individual (Group 1-3)",20.6 ng/g
same,concentration at 1 h,"[1]; male, C57BL/6, mouse, brain, 10 mg/kg, 10 mg/kg IP, 1 h, read-out: brain calculated concentration, Mean",14.6 ng/g
same,concentration at 1 h,"[1]; male, C57BL/6, mouse, brain, 10 mg/kg, 10 mg/kg IP, 1 h, read-out: brain calculated concentration, individual (Group 1-3)",12.4 ng/g
same,concentration at 2 h,"[1]; male, C57BL/6, mouse, brain, 10 mg/kg, 10 mg/kg IP, 2 h, read-out: brain calculated concentration, Mean",19.4 ng/g
same,concentration at 2 h,"[1]; male, C57BL/6, mouse, brain, 10 mg/kg, 10 mg/kg IP, 2 h, read-out: brain calculated concentration, individual (Group 1-3)",15.9 ng/g
same,concentration at 4 h,"[1]; male, C57BL/6, mouse, brain, 10 mg/kg, 10 mg/kg IP, 4 h, read-out: brain calculated concentration, Mean",10.9 ng/g
same,concentration at 4 h,"[1]; male, C57BL/6, mouse, brain, 10 mg/kg, 10 mg/kg IP, 4 h, read-out: brain calculated concentration, individual (Group 1-3)",9.5 ng/g
same,Kp at 0.25 h,"[1]; male, C57BL/6, mouse, brain/plasma, ip, 10 mg/kg, 10 mg/kg IP, 0.25 h, read-out: Brain/plasma Ratio, Mean",0.014
same,Kp at 0.25 h,"[1]; male, C57BL/6, mouse, brain/plasma, ip, 10 mg/kg, 10 mg/kg IP, 0.25 h, read-out: Brain/plasma Ratio, individual (Group 1-3)",0.01
same,Kp at 0.5 h,"[1]; male, C57BL/6, mouse, brain/plasma, ip, 10 mg/kg, 10 mg/kg IP, 0.5 h, read-out: Brain/plasma Ratio, Mean",0.014
same,Kp at 1 h,"[1]; male, C57BL/6, mouse, brain/plasma, ip, 10 mg/kg, 10 mg/kg IP, 1 h, read-out: Brain/plasma Ratio, individual (Group 1-3)",0.015
same,Kp,"[1]; male, C57BL/6, mouse, brain/plasma, ip, 10 mg/kg, 10 mg/kg IP, read-out: Ratio_AUCLAST (Brain/plasma)",0.02
same,AUC,[1]; [2],0.064 µg·h/mL
same,Tmax,[1]; [3],0.5 h
same,half-life,"[1]; male, C57BL/6, mouse, brain, 10 mg/kg IP, read-out: t1/2 brain",> 4 h
same,concentration at 0.25 h,"[1]; male, C57BL/6, mouse, plasma, 10 mg/kg, 10 mg/kg IP, 0.25 hr, read-out: plasma concentration, Mean",1.31 µg/mL
same,concentration at 0.25 h,"[1]; male, C57BL/6, mouse, plasma, 10 mg/kg, 10 mg/kg IP, 0.25 hr, read-out: plasma concentration, individual (Group 1-3)",1.25 µg/mL
same,concentration at 0.5 h,"[1]; male, C57BL/6, mouse, plasma, 10 mg/kg, 10 mg/kg IP, 0.5 hr, read-out: plasma concentration, Mean",1.87 µg/mL
same,concentration at 1 h,"[1]; male, C57BL/6, mouse, plasma, 10 mg/kg, 10 mg/kg IP, 1 hr, read-out: plasma concentration, Mean",1.15 µg/mL
same,concentration at 1 h,"[1]; male, C57BL/6, mouse, plasma, 10 mg/kg, 10 mg/kg IP, 1 hr, read-out: plasma concentration, individual (Group 1-3)",1.02 µg/mL
same,concentration at 2 h,"[1]; male, C57BL/6, mouse, plasma, 10 mg/kg, 10 mg/kg IP, 2 hr, read-out: plasma concentration, Mean",1.09 µg/mL
same,concentration at 2 h,"[1]; male, C57BL/6, mouse, plasma, 10 mg/kg, 10 mg/kg IP, 2 hr, read-out: plasma concentration, individual (Group 1-3)",1.06 µg/mL
same,concentration at 4 h,"[1]; male, C57BL/6, mouse, plasma, 10 mg/kg, 10 mg/kg IP, 4 hr, read-out: plasma concentration, Mean",0.319 µg/mL
same,Cmax,[1]; [4],3.3 µM
same,AUC(0-t),[1]; [4],3.85 µg·h/mL
same,AUC(0-inf),"[1]; male, C57BL/6, mouse, plasma, 10 mg/kg IP, read-out: AUCINF plasma",4.55 µg·h/mL
same,Tmax,[1]; [5],0.5 h
same,half-life,[1]; [6],1.5 h
same,Cmax,[1]; [7],1.87 µg/mL
NC(=O)CC(F)(F)C(=O)N1N=C(c2c(-c3ccc(Cl)cc3)c3ccccc3[nH]c2=O)CC1c1ccc(Cl)cc1 (stereo not drawn) [2k],Cmax brain,"[1]; 10 mg/kg IP, C57BL/6 mice",13 ng/mL
same,AUC,[1]; [2],0.041 µg·h/mL
same,Tmax,[1]; [3],4 h
same,AUC(0-t),[1]; [4],2.27 µg·h/mL
same,Tmax,[1]; [5],0.5 h
same,half-life,[1]; [6],4.9 h
same,Cmax,[1]; [7],0.815 µg/mL
O=C(O)CC(F)(F)C(=O)N1N=C(c2c(-c3ccc(Cl)cc3)c3ccccc3[nH]c2=O)C[C@H]1c1ccc(Cl)cc1 [(S)-(−)-2i],% control hP2x,hP2x,108 ± 0.53%
